Reference: the NIST ThermoML archive (doi:10.1016/j.fluid.2017.06.019)

Settings: 365.72 K, Coaxial cylinder method

CCC [propane]
Settings | thermal conductivity [W/m/K]
3922 kPa, Gas | 0.1454
3923 kPa, Gas | 0.149
3924 kPa, Gas | 0.1527
3925 kPa, Gas | 0.1565
3926 kPa, Gas | 0.1605
3927 kPa, Gas | 0.1644
3928 kPa, Gas | 0.1684
3929 kPa, Gas | 0.1724
3930 kPa, Gas | 0.1763
3931 kPa, Gas | 0.1804
3932 kPa, Gas | 0.1846
3933 kPa, Gas | 0.1886
3934 kPa, Gas | 0.1932
3935 kPa, Gas | 0.1972
3936 kPa, Gas | 0.2015
3937 kPa, Gas | 0.2059
3938 kPa, Gas | 0.2104
3939 kPa, Gas | 0.2148
3940 kPa, Gas | 0.2193
3941 kPa, Gas | 0.2241
3942 kPa, Gas | 0.229
3943 kPa, Gas | 0.2336
3944 kPa, Gas | 0.2401
3945 kPa, Liquid | 0.2612
3946 kPa, Liquid | 0.2502
3947 kPa, Liquid | 0.2373
3948 kPa, Liquid | 0.224
3949 kPa, Liquid | 0.2125
3950 kPa, Liquid | 0.2005
3951 kPa, Liquid | 0.1903
3952 kPa, Liquid | 0.1805
3953 kPa, Liquid | 0.1711
3954 kPa, Liquid | 0.1622
3955 kPa, Liquid | 0.1544
3956 kPa, Liquid | 0.1467
3957 kPa, Liquid | 0.1394
3958 kPa, Liquid | 0.1335
3959 kPa, Liquid | 0.1273
3960 kPa, Liquid | 0.1217
3961 kPa, Liquid | 0.1164
3962 kPa, Liquid | 0.1139
3963 kPa, Liquid | 0.1116
3964 kPa, Liquid | 0.1094
3965 kPa, Liquid | 0.1072
3966 kPa, Liquid | 0.1052
3967 kPa, Liquid | 0.1032
3968 kPa, Liquid | 0.1013
3969 kPa, Liquid | 0.09939
3970 kPa, Liquid | 0.09778
3971 kPa, Liquid | 0.09605
3972 kPa, Liquid | 0.09456
3973 kPa, Liquid | 0.09289
3974 kPa, Liquid | 0.09145
3975 kPa, Liquid | 0.09005
3976 kPa, Liquid | 0.08869
3977 kPa, Liquid | 0.08737
